US20070254312A1, “Protein Kinase Inhibitors and Methods for Identiying Same” (priority 2004, published 2007)
Starred links: 1 amine or outer side, 2 acyl side, 3 side chain; linkers in the order of their positions; H or OH if unused. Non-standard residues stand in square brackets, D forms with d. Residues, ends and D or L forms follow the SMILES beside them. *: point of attachment. Benzoyl(4-(pyrrol-1-yl)) = O=C(c1ccc(-n2cccc2)cc1)*; Phenylacetyl(3,4-Cl2) = O=C(Cc1ccc(Cl)c(Cl)c1)*; Cysteamide = C(CS[*:3])N[*:1]; Dap = NC[C@H](N)C(=O)O

Experiments:
PKCγ = PKCγ (Homo sapiens, UniProt P05129); assay: PKC isoform assay, Example 1; format: biochemical; set-up: purchased Pan Vera
Method: Protein Kinase C Assay (general). The peptides […] (for PKC α, β and γ) and acetyl-[…] (for PKC ε and ζ) were used as substrates. […] Total reaction volume was 50 μL. […] Following an additional 5 min incubation at ambient temperature, 75 μL from each reaction well was transferred into each well of a Unifilter (P81 cellulose phosphate paper) assay plate and washed four times with 0.1% phosphoric acid in water. […] IC50 values were calculated using GraFit (Erithacus Software Limited) and Ki values were calculated using Enzyme Kinetics, SigmaPlot (SPSS Inc.)

PKCθ = PKCθ (Homo sapiens, UniProt Q04759); set-up: purchased Panvera; details: literature values; relative to most potently inhibited isoform (=1); cited from earlier work
PKCθ, sequence (Q04759 whole entry, canonical isoform): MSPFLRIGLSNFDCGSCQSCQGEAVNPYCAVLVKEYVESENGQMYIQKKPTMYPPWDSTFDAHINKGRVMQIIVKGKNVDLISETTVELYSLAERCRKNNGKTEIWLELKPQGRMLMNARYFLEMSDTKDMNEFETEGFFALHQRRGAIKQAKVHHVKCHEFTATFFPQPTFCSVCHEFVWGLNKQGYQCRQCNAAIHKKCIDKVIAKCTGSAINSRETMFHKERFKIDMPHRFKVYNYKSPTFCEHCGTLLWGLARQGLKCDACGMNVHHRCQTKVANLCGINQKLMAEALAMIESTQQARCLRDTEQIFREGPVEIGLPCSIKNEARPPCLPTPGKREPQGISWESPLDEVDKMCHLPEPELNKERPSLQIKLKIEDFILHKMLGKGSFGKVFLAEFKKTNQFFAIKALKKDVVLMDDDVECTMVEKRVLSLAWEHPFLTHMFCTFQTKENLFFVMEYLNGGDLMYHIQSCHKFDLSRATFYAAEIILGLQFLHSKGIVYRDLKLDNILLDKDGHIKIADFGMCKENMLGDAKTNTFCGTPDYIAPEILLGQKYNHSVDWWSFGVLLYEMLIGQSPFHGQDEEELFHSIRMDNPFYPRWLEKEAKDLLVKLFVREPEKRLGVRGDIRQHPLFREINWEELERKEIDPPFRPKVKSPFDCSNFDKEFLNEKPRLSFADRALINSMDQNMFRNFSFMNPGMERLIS

CC(C)C[C@H](NC(=O)[C@H](C)NC(=O)CNC(=O)[C@H](CCCNC(=N)N)NC(=O)[C@H](CCCNC(=N)N)NC(=O)[C@H](C)NC(=O)Cc1ccc(Cl)c(Cl)c1)C(=O)N[C@@H](CCCNC(=N)N)C(=O)N[C@@H](CNC(=O)c1ccc(-n2cccc2)cc1)C(=O)N[C@@H](C)C(=O)NCCS [Compound 6] ({Phenylacetyl(3,4-Cl2)}-ARRGALR[Dap](Benzoyl(4-(pyrrol-1-yl)))A-Cysteamide)
selectivity for PKCα versus PKCγ (PKCγ): 580 fold
Fold selectivity (IC50), PKC θ (PKCθ): 1210 fold
